# Values quoted from earlier work in US6967218B2, “Pravastatin pharmaceutical formulations and methods of their use” (Biovail Laboratories, Inc., priority 2002, dated 2005).
# Columns and labels:
# [1] = in vivo
# [2] = Schalke et al, 1992
# [3] = intravenous, healthy volunteers
smiles,measurement,setting,value
"CC[C@H](C)C(=O)O[C@H]1C[C@H](O)C=C2C=C[C@H](C)[C@H](CC[C@@H](O)C[C@@H](O)CC(=O)O)[C@H]21 [pravastatin, Pravastatin]",first-pass extraction ratio in the liver,[1],0.66
same,adverse effect observed in treated patients,[2],Severe myopathy
same,decrease of systemic bioavailability after bedtime (PM) dose compared to morning (AM) dose,PM vs AM dose,60%
same,absolute bioavailability,"oral, man",17%
same,fraction of radiolabeled oral dose excreted in feces,radiolabeled oral dose,70%
same,fraction of radiolabeled oral dose excreted in urine,radiolabeled oral dose,Approximately 20%
same,share of total body clearance by non-renal routes (biliary excretion and biotransformation),[3],53%
same,share of total body clearance via renal excretion,[3],approximately 47%
